Source: ChEMBL document CHEMBL4043239, “Discovery and optimization of oxadiazole-based FLAP inhibitors” (Bioorg Med Chem Lett, 2017)
≈ marks a conversion by molar mass, not a printed value.

Columns and labels:
[1] = Aqueous equilibrium solubility in citric acid/disodium phosphate buffer at pH 6.8 at 1 uM after 24 hrs by HPLC method; type: physicochemical; details: for solubility: buffer, pH 6.8, 24 h, 1 µM; for solubility thermodynamic at 24 h, 1 µM: citric acid/disodium phosphate buffer, pH 6.8
[2] = Aqueous kinetic solubility of the compound at pH 7.4; type: physicochemical; details: for Kinetic_solubility: buffer; for solubility kinetic: aqueous, read-out: Kinetic_solubility
hERG (KCNH2) [3] = target: T1, hERG (KCNH2) (Homo sapiens, UniProt Q12809); assay: Inhibition of human ERG expressed in CHO cells at 14 uM at -70mV holding potential measured after 300 secs by IonWorks electrophysiology method relative to control; type: cell-based; details: CHO cells expressing human ERG
T1 sequence (Q12809 whole entry): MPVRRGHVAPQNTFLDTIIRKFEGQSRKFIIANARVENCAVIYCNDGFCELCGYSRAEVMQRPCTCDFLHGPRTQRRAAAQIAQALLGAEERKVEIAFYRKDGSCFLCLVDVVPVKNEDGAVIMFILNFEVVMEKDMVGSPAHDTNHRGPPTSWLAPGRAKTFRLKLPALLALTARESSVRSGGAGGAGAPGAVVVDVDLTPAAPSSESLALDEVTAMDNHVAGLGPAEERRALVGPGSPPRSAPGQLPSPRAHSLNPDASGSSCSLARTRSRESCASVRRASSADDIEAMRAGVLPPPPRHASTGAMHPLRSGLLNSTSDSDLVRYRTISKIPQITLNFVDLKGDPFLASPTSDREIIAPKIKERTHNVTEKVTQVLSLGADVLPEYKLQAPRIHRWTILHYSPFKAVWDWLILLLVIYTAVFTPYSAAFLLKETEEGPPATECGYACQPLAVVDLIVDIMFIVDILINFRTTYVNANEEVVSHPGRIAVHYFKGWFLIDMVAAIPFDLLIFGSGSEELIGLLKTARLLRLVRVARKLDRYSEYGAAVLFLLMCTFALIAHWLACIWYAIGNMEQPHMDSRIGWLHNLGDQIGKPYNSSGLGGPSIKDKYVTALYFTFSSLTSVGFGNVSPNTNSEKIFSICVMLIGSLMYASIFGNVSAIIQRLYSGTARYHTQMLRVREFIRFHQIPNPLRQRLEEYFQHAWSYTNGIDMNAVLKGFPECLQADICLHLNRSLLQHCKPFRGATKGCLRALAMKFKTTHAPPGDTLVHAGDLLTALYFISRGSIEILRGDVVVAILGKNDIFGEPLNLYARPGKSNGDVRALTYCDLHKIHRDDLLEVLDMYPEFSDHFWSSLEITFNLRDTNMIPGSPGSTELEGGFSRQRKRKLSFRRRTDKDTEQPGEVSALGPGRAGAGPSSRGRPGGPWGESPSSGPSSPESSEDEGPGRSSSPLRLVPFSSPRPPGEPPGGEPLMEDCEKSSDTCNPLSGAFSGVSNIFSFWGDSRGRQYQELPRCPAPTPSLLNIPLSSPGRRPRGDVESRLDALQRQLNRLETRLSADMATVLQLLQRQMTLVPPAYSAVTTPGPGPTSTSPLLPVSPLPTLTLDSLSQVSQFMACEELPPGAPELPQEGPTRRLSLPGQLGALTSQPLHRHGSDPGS

[4] = Stability in human liver microsomes at 1 uM pretreated for 10 mins followed by NADPH addition after 60 mins by LC/MS analysis relative to hepatic blood flow; type: ADME, microsome; details: read-out: Stability
[5] = target: T2, Arachidonate 5-lipoxygenase-activating protein (Homo sapiens, UniProt P20292); assay: Displacement of [125I]-L-691831 from human FLAP expressed in Sf9 cell membranes after 2 hrs by Topcount method
T2 sequence (P20292 whole entry): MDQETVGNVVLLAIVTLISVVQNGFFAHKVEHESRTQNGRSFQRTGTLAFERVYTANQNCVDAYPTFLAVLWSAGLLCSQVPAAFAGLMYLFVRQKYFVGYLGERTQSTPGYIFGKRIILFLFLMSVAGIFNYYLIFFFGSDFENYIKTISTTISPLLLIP

[6] = target: T2, Arachidonate 5-lipoxygenase-activating protein; assay: Inhibition of FLAP in calcimycin-stimulated human whole blood assessed as reduction in LTB4 production pretreated for 15 mins followed by calcimycin addition after 30 mins by ELISA
[7] = target: T3, Arachidonate 5-lipoxygenase-activating protein (Homo sapiens) (UniProt P20292); assay: Ratio of IC50 for FLAP in calcimycin-stimulated human whole blood to IC50 for displacement of [125I]-L-691831 from human FLAP expressed in Sf9 cell membranes
T3 sequence (whole entry): T2 sequence (P20292 whole entry)

hERG (KCNH2) [8] = target: T1, hERG (KCNH2); assay: Inhibition of human ERG expressed in CHO cells at 30 uM at -70mV holding potential measured after 300 secs by IonWorks electrophysiology method relative to control; type: cell-based; details: CHO cells expressing human ERG
hERG (KCNH2) [9] = target: T1, hERG (KCNH2); assay: Inhibition of human ERG expressed in CHO cells at 11 uM at -70mV holding potential measured after 300 secs by IonWorks electrophysiology method relative to control; type: cell-based; details: CHO cells expressing human ERG
[10] = Clearance in human hepatocytes at 1 uM measured after 1 hr by LC/MS analysis relative to hepatic blood flow; type: ADME, cell-based, Hepatocyte
hERG (KCNH2) [11] = target: T1, hERG (KCNH2); assay: Inhibition of human ERG expressed in CHO cells at 12 uM at -70mV holding potential measured after 300 secs by IonWorks electrophysiology method relative to control; type: cell-based; details: CHO cells expressing human ERG
hERG (KCNH2) [12] = target: T1, hERG (KCNH2); assay: Inhibition of human ERG expressed in HEK293 cells at 30 uM by whole-cell patch clamp method relative to control; type: cell-based; details: HEK293 cells expressing human ERG

| SMILES | hepatic extraction ratio at 1 h, 1 µM [4] | IC50 [5] | IC50 [6] | solubility kinetic [2] | other results |
| --- | --- | --- | --- | --- | --- |
| CC(C)(O)CN1CCN(c2nc([C@@](C)(c3ccc(-c4cnc(N)nc4)cc3)C3CC3)no2)CC1 | 0.36 | 0.053 µM | 0.099 µM |  | solubility [1]: Soluble; Kinetic_solubility [2]: Soluble; inhibition at 5 min, 14 µM (hERG (KCNH2) [3]): 26% |
| Cc1cc(-c2nc(C3(c4ccc(-c5cnc(N)nc5)cn4)CCC3)no2)[nH]n1 |  |  | 0.342 µM | > 0.037 mg/mL |  |
| CN(C)c1nc(C2(c3ccc(-c4cnc(N)nc4)nc3)CCC2)no1 |  |  | 2.6 µM |  |  |
| Nc1ncc(-c2ccc(C3(c4noc(N5CC[C@H](O)C5)n4)CCC3)cc2)cn1 | < 0.24 |  | 0.202 µM | > 0.037 mg/mL | Ratio IC50 [7]: 6 |
| C[C@@](c1ccc(-c2cnc(N)nc2)nc1)(c1noc(-c2cnn(CC#N)c2)n1)C1CC1 | 0.57 | 0.0081 µM | 0.019 µM |  | solubility [1]: Soluble; Kinetic_solubility [2]: Soluble |
| N#CCCn1cc(-c2nc(C3(c4ccc(-c5cnc(N)nc5)cc4)CCC3)no2)cn1 |  | 0.001 µM | 0.037 µM | 0.017 mg/mL (≈ 41.2 µM) |  |
| CC(C)(C)NC(=O)Cn1cc(-c2nc(C3(c4ccc(-c5cnc(N)nc5)cc4)CCC3)no2)cn1 |  |  |  | 0.022 mg/mL (≈ 46.6 µM) |  |
| Nc1ncc(-c2ccc(C3(c4noc(N5CCC(O)CC5)n4)CCC3)cn2)cn1 |  |  | 0.595 µM |  | inhibition at 5 min, 30 µM (hERG (KCNH2) [8]): 51% |
| N#CCCn1cc(-c2nc(C3(c4ccc(-c5cnc(N)nc5)nc4)CCC3)no2)cn1 |  | 0.011 µM | 0.085 µM | > 0.04 mg/mL | solubility thermodynamic at 24 h, 1 µM [1]: 0.009 mg/mL (≈ 21.8 µM) |
| COCCn1cc(-c2nc(C3(c4ccc(-c5cnc(N)nc5)nc4)CCC3)no2)cn1 |  |  | 0.213 µM | > 0.041 mg/mL |  |
| CC(C)(CO)n1cc(-c2nc(C3(c4ccc(-c5cnc(N)nc5)cc4)CCC3)no2)cn1 |  |  | 0.155 µM | > 0.043 mg/mL |  |
| CC1(O)CCN(c2nc([C@@](C)(c3ccc(-c4cnc(N)nc4)nc3)C3CC3)no2)CC1 |  | 0.097 µM | 0.115 µM |  | inhibition at 5 min, 30 µM (hERG (KCNH2) [8]): 17% |
| CN(C)c1nc(C2(c3ccc(-c4cnc(N)nc4)cc3)CCC2)no1 |  |  |  | 0.0019 mg/mL (≈ 5.65 µM) |  |
| COCCn1cc(-c2nc(C3(c4ccc(-c5cnc(N)nc5)cc4)CCC3)no2)cn1 |  |  |  | > 0.041 mg/mL |  |
| CC(C)(O)Cn1cc(-c2nc(C3(c4ccc(-c5cnc(N)nc5)nc4)CCC3)no2)cn1 | < 0.24 |  | 0.124 µM | > 0.043 mg/mL | solubility thermodynamic at 24 h, 1 µM [1]: 0.045 mg/mL (≈ 104 µM); inhibition at 5 min, 11 µM (hERG (KCNH2) [9]): < 10%; hepatic extraction ratio at 1 h, 1 µM [10]: 0.5 |
| Cc1cc(-c2nc(C3(c4ccc(-c5cnc(N)nc5)cc4)CCC3)no2)[nH]n1 |  |  | 0.08 µM | 0.003 mg/mL (≈ 8.03 µM) |  |
| Nc1ncc(-c2ccc(C3(c4noc(N5CCCC5)n4)CCC3)cn2)cn1 |  |  | 0.917 µM |  |  |
| C[C@@](c1ccc(-c2cnc(N)nc2)nc1)(c1noc(-c2cnn(C3COC3)c2)n1)C1CC1 | 0.45 | 0.0015 µM | 0.012 µM |  | solubility [1]: Soluble; Kinetic_solubility [2]: Soluble |
| Nc1ncc(-c2ccc(C3(c4noc(N5CC(O)C5)n4)CCC3)cc2)cn1 | < 0.24 | 0.16 µM | 0.315 µM | > 0.036 mg/mL | Ratio IC50 [7]: 2; inhibition at 5 min, 12 µM (hERG (KCNH2) [11]): 18% |
| CC1(O)CN(c2nc([C@@](C)(c3ccc(-c4cnc(N)nc4)cc3)C3CC3)no2)C1 | < 0.24 | 0.016 µM | 0.072 µM |  | solubility [1]: Soluble; Kinetic_solubility [2]: Soluble; inhibition at 5 min, 11 µM (hERG (KCNH2) [9]): 13% |
| CC(C)[C@](C)(c1ccc(-c2cnc(N)nc2)nc1)c1noc(-c2cnn(C3COC3)c2)n1 | < 0.3 | 0.0066 µM | 0.037 µM |  | solubility thermodynamic at 24 h, 1 µM [1]: 0.084 mg/mL (≈ 194 µM); Kinetic_solubility [2]: Soluble; inhibition at 30 µM (hERG (KCNH2) [12]): 24%; hepatic extraction ratio at 1 h, 1 µM [10]: 0.34 |
| CC(C)(C#N)n1cc(-c2nc(C3(c4ccc(-c5cnc(N)nc5)nc4)CCC3)no2)cn1 |  |  | 0.094 µM | 0.002 mg/mL (≈ 4.68 µM) |  |
| CC(C)(CO)n1cc(-c2nc(C3(c4ccc(-c5cnc(N)nc5)nc4)CCC3)no2)cn1 |  |  | 0.403 µM | > 0.043 mg/mL |  |
